Experimental data from US12325710B2, “Substituted 1,2,3,4,5,6-hexahydroazepino[4,5-b]indoles for treating brain disorders” (priority 2019, dated 2025).
Entries after “also recorded” stand apart in the source; their conditions may differ.

How the values were obtained:
human 5-HT2A receptors = human 5-HT2A receptors (Homo sapiens, UniProt P28223); experiment: 5-HT2A Gq-mediated calcium flux functional assay (human); assay type: cell-based
Protocol: Serotonin and Opioid Receptor Functional Assays. Functional assay screens at 5-HT and opioid receptors were performed in parallel using the same compound dilutions and 384-well format high-throughput assay platforms. Assays assessed activity at all human isoforms of the receptors, except where noted for the mouse 5-HT2A receptor. Receptor constructs in pcDNA vectors were generated from the Presto-Tango GPCR library with minor modifications. All compounds were serially diluted in drug buffer (HBSS, 20 mM HEPES, pH 7.4 supplemented with 0.1% bovine serum albumin and 0.01% ascorbic acid) and dispensed into 384-well assay plates using a FLIPR^TETRA (Molecular Devices). Every plate included a positive control such as 5-HT (for all 5-HT receptors), DADLE (DOR), salvinorin A (KOR), and DAMGO (MOR). For measurements of 5-HT2A, 5-HT2B, and 5-HT2C Gq-mediated calcium flux function, HEK Flp-In 293 T-Rex stable cell lines (Invitrogen) were loaded with Fluo-4 dye for one hour, stimulated with compounds and read for baseline (0-10 seconds) and peak fold-over-basal fluorescence (5 minutes) at 25° C. on the FLIPR^TETRA. For measurement of 5-HT6 and 5-HT7a functional assays, Gs-mediated cAMP accumulation was detected using the split-luciferase GloSensor assay in HEKT cells measuring luminescence on a Microbeta Trilux (Perkin Elmer) with a 15 min drug incubation at 25° C. […]

[1] = system: rat embryonic cortical neurons; experiment: Dendritogenesis (Sholl analysis) in cultured cortical neurons; assay type: cell-based
Protocol: Embryonic rat cortical neurons were treated for a short period of time (1 h) followed by a suitable growth period (71 h) to measure the psychoplastogenic effects of the compounds described herein. […] Therefore, the effects of ibogalogs 8-17 on dendritic growth was assessed.
Dendritogenesis Experiments. For the dendritogenesis experiments conducted using cultured cortical neurons, timed pregnant Sprague Dawley rats were obtained from Charles River Laboratories (Wilmington, MA). Full culturing, staining, and analysis details were performed as previously described. (Dunlap, L. et al., 2019)

Chain of human 5-HT2A receptors (P28223 whole entry, canonical isoform): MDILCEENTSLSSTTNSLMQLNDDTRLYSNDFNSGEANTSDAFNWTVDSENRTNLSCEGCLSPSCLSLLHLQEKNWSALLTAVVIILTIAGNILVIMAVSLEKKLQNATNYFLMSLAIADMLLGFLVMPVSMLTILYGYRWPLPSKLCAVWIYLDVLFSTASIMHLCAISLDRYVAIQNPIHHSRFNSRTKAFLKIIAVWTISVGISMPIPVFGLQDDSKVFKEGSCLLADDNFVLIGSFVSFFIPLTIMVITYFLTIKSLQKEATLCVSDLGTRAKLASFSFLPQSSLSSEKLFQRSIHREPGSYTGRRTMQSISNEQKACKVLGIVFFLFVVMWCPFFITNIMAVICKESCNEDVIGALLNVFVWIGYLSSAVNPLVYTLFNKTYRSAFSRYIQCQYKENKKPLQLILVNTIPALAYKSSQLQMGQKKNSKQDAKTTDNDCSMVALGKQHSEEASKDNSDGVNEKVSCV

COc1ccc2c3c([nH]c2c1)CCN(C)CC3 [TBG]
agonist activity at human 5-HT2A receptors (human 5-HT2A receptors): potent agonist activity | dendritic arbor complexity (Sholl analysis, Nmax) ([1]; DIV6): increased dendritic arbor complexity | effect on dendritic growth after pretreatment with ketanserin (5-HT2A antagonist) ([1]; ketanserin pretreatment): blocked by the 5-HT2A antagonist ketanserin; also recorded: completely abrogated its effects
